Data from patent US20120004272A1, “BIOCIDAL COMPOSITION OF 2,6-DIMETHYL-M-DIOXANE-4-OL ACETATE AND METHODS OF USE” (priority 2009, published 2012).

Legend:
[1] = system: Pseudomonas aeruginosa (ATCC#15442, ATCC#10145), Enterobacter aerogenes, Escherichia coli, Klebsiella pneumoniae, Staphylococcus aureus, Salmonella …; test: Preservative efficacy (multi-challenge, 96-deep well) in spinning finish emulsion; type: cell-based; conditions: Day 27, post 4th microbial challenge; ppm active
[2] = system: Pseudomonas aeruginosa (ATCC#15442, ATCC#10145), Enterobacter aerogenes, Escherichia coli, Klebsiella pneumoniae, Staphylococcus aureus, Salmonella …; test: Preservative efficacy (multi-challenge, 96-deep well) in water-based latex paint, pH 7.4; type: cell-based
[3] = Day 15, after four bacterial challenges, ppm active
[4] = Day 20, after four bacterial challenges, ppm active

Q: For `ClC=CC[N+]12CN3CN(CN(C3)C1)C2.[Cl-]` [CTAC], which “CTAC alone (ppm), concentration necessary for ≧6 log10 microbial kill” value [1] is on record?
A: Its value is 582 ppm.

Q: What does the source list for `CC1(C)COCN1` [DMO, 4,4-Dimethyloxazolidine]?
A: DMO alone (ppm), concentration required for ≧4 log10 microbial kill [2, 3]: 308 ppm; log10 viable microorganisms, DMO alone score ([2]; Day 15, DMO 91 ppm): 8 log10; log10 viable microorganisms, DMO alone score ([2]; Day 15, DMO 137 ppm): 7 log10; log10 viable microorganisms, DMO alone score ([2]; Day 15, DMO 205 ppm): 6 log10; log10 viable microorganisms, DMO alone score ([2]; Day 15, DMO 308 ppm): 0 log10; log10 viable microorganisms, DMO alone score ([2]; Day 15, DMO 463 ppm): 0 log10; log10 viable microorganisms, DMO alone score ([2]; Day 15, DMO 693 ppm): 0 log10; log10 viable microorganisms, DMO alone score ([2]; Day 15, DMO 1040 ppm): 0 log10; log10 viable microorganisms, DMO alone score ([2]; Day 15, DMO 1560 ppm): 0 log10; DMO alone (ppm), concentration necessary for ≧6 log10 microbial kill [1]: 355 ppm

Q: How did the “DMX alone (ppm), concentration required for ≧4 log10 microbial kill” value [2, 3] turn out when `CC(=O)OC1CC(C)OC(C)O1` (stereo not shown) [DMX, 2,6-Dimethyl-m-dioxan-4-ol acetate] was run?
A: The value was 1740 ppm.

Q: And the “log10 viable microorganisms, DMX alone” value ([2]; Day 15, DMX 102 ppm)?
A: The value was 7 log10.

Q: And the “log10 viable microorganisms, DMX alone” value ([2]; Day 15, DMX 153 ppm)?
A: The value was 7 log10.

Q: And the “log10 viable microorganisms, DMX alone” value ([2]; Day 15, DMX 229 ppm)?
A: The value was 8 log10.

Q: And the “log10 viable microorganisms, DMX alone” value ([2]; Day 15, DMX 344 ppm)?
A: Its value is 8 log10.

Q: What about the “log10 viable microorganisms, DMX alone” value ([2]; Day 15, DMX 516 ppm) of the same compound?
A: Its value is 7 log10.

Q: What about the “log10 viable microorganisms, DMX alone” value ([2]; Day 15, DMX 773 ppm) of the same compound?
A: Its value is 8 log10.

Q: What about the “log10 viable microorganisms, DMX alone” value ([2]; Day 15, DMX 1160 ppm) of the same compound?
A: Its value is 5 log10.

Q: What about the “log10 viable microorganisms, DMX alone” value ([2]; Day 15, DMX 1740 ppm) of the same compound?
A: Its value is 0 log10.

Q: What about the “DMX alone (ppm), concentration required for ≧4 log10 microbial kill” value [2, 4] of the same compound?
A: The value was 1740 ppm.

Q: What about the “log10 viable microorganisms, DMX alone” value ([2]; Day 20, DMX 102 ppm) of the same compound?
A: The value was 8 log10.

Q: What about the “log10 viable microorganisms, DMX alone” value ([2]; Day 20, DMX 153 ppm) of the same compound?
A: Its value is 8 log10.

Q: And the “log10 viable microorganisms, DMX alone” value ([2]; Day 20, DMX 229 ppm)?
A: The value was 8 log10.

Q: What about the “log10 viable microorganisms, DMX alone” value ([2]; Day 20, DMX 344 ppm) of the same compound?
A: The value was 8 log10.

Q: What about the “log10 viable microorganisms, DMX alone” value ([2]; Day 20, DMX 516 ppm) of the same compound?
A: Its value is 8 log10.

Q: And the “log10 viable microorganisms, DMX alone” value ([2]; Day 20, DMX 773 ppm)?
A: The value was 8 log10.

Q: What about the “log10 viable microorganisms, DMX alone” value ([2]; Day 20, DMX 1160 ppm) of the same compound?
A: Its value is 8 log10.

Q: What about the “log10 viable microorganisms, DMX alone” value ([2]; Day 20, DMX 1740 ppm) of the same compound?
A: The value was 4 log10.

Q: What about the “DMX alone (ppm), concentration necessary for ≧6 log10 microbial kill” value [1] of the same compound?
A: The value was 1339 ppm.

Q: Which results are given for `CCC12COCN1COC2` [EBCO, 7-Ethyl-bicyclooxazolidine]?
A: EBCO alone (ppm), concentration required for ≧4 log10 microbial kill [2, 4]: 1920 ppm; log10 viable microorganisms, EBCO alone score ([2]; Day 20, EBCO 112 ppm): 8 log10; log10 viable microorganisms, EBCO alone score ([2]; Day 20, EBCO 169 ppm): 8 log10; log10 viable microorganisms, EBCO alone score ([2]; Day 20, EBCO 252 ppm): 8 log10; log10 viable microorganisms, EBCO alone score ([2]; Day 20, EBCO 379 ppm): 7 log10; log10 viable microorganisms, EBCO alone score ([2]; Day 20, EBCO 569 ppm): 7 log10; log10 viable microorganisms, EBCO alone score ([2]; Day 20, EBCO 853 ppm): 8 log10; log10 viable microorganisms, EBCO alone score ([2]; Day 20, EBCO 1280 ppm): 7 log10; log10 viable microorganisms, EBCO alone score ([2]; Day 20, EBCO 1920 ppm): 0 log10

Q: With `O=[N+]([O-])C(CO)(CO)CO` [TN, 2-Hydroxymethyl-2-nitro-1,3-propanediol] as the compound, how does the “TN alone (ppm), concentration necessary for ≧6 log10 microbial kill” value [1] read?
A: Its value is 592 ppm.
